Measurements published in US8324390B2, “Tetrazole-substituted anthranilamides as pesticides” (Bayer CropScience AG, priority 2008, dated 2012).
Read-outs that look alike come from different tables or passages of the source.

What was measured:
[1] = tested on: larvae of the mustard beetle (Phaedon cochleariae); assay: Phaedon test (PHAECO spray treatment); settings: Phaedon cochleariae, in Brassica rapa, foliar, read-out: effect in % (beetle larvae killed)
[2] = log P determination by HPLC (EEC Directive 79/831 Annex V.A8); format: physicochemical
Method: The measurements were carried out using an Agilent 1100 LC system with a 50*4.6 Zorbax Eclipse C18 1.8 μm column (oven temperature 55° C., flow rate 2.0 ml/min).
The following mobile phases were used:
Mobile phase A: acetonitrile+1000 μl of formic acid/l
Mobile phase B: Millipore water+900 μl of formic acid/l

[3] = tested on: green peach aphid (Myzus persicae); assay: Myzus test (MYZUPE spray treatment); format: in vivo; settings: Myzus persicae, foliar, read-out: effect in % (aphids killed)
Excerpt: Solvent: 78 parts by weight of acetone
(§1) Solvent: 78.0 parts by weight of acetone

[4] = tested on: caterpillars of the armyworm (Spodoptera frugiperda); assay: Spodoptera frugiperda test (SPODFR spray treatment); format: in vivo; settings: Spodoptera frugiperda, foliar, read-out: effect in % (caterpillars killed)
Excerpt: as §1

[5] = reversed-phase HPLC, Zorbax Eclipse C18 column, by HPLC according to EEC Directive 79/831 Annex V.A8, read-out: log P
[6] = application rate 100 g/ha, Chinese cabbage leaf discs
[7] = application rate 100 g/ha, maize leaf discs
[8] = reversed-phase HPLC, Zorbax Eclipse C18 column, determined by HPLC according to EEC Directive 79/831 Annex V.A8, read-out: log P

SMILES	pest or weed control at 100 g/ha [1] [%]	chromatographic logP ([2]; log P)	pest or weed control at 100 g/ha ([3]; in Brassica rapa) [%]	pest or weed control at 100 g/ha ([4]; in Zea mays) [%]	chromatographic logP [2, 5]	pest or weed control at 100 g/ha [3, 6] [%]	pest or weed control at 100 g/ha [4, 7] [%]	pest or weed control at 20 g/ha ([3]; application rate 20 g/ha, Chinese cabbage leaf discs) [%]	chromatographic logP [2, 8]
C=CCNC(=O)c1cc(C#N)cc(C)c1NC(=O)c1cc(Cn2nnc(C(F)(F)F)n2)nn1-c1ncccc1Cl [Example 320]	≥ 80	2.97	≥ 80	≥ 80	–	–	–	–	–
CCNC(=O)c1cc(C#N)cc(C)c1NC(=O)c1cc(Cn2nnc(C(F)(F)F)n2)nn1-c1ncccc1Br [Example 322]	≥ 80	–	–	–	2.88	≥ 80	≥ 80	–	–
Cc1cc(Cl)cc(C(=O)NC(C)CF)c1NC(=O)c1cc(Cn2nnc(C(F)(F)F)n2)nn1-c1ncccc1Cl (stereo not shown) [Example 328]	≥ 80	3.3	≥ 80	≥ 80	–	–	–	–	–
Cc1cc(Cl)cc(C(=O)NC(C)(C)C)c1NC(=O)c1cc(Cn2nnc(C(F)(F)F)n2)nn1-c1ncccc1Br [Example 329]	≥ 80	–	–	–	3.88	–	≥ 80	≥ 80	–
Cc1cc(Cl)cc(C(N)=O)c1NC(=O)c1cc(Cn2nnc(C(F)(F)F)n2)nn1-c1ncccc1Br [Example 330]	≥ 80	–	–	–	2.76	≥ 80	≥ 80	–	–
Cc1cc(C#N)cc(C(=O)NC(C)(C)C)c1NC(=O)c1cc(Cn2nnc(C(F)(F)F)n2)nn1-c1ncccc1Br [Example 332]	≥ 80	–	–	–	3.43	≥ 80	≥ 80	–	–
Cc1cc(C#N)cc(C(=O)NC2CC2)c1NC(=O)c1cc(Cn2nnc(C(F)(F)F)n2)nn1-c1ncccc1Br [Example 333]	≥ 80	–	–	–	2.85	≥ 80	≥ 80	–	–
Cc1cc(Cl)cc(C(=O)NC(C)C)c1NC(=O)c1cc(Cn2nnc(C(F)(F)F)n2)nn1-c1ncccc1Br [Example 334]	≥ 80	–	–	–	3.49	≥ 80	≥ 80	–	–
Cc1cc(Cl)cc(C(=O)NC2CC2)c1NC(=O)c1cc(Cn2nnc(C(F)(F)F)n2)nn1-c1ncccc1Br [Example 335]	≥ 80	–	–	–	3.25	≥ 80	≥ 80	–	–
C=C(C)CNC(=O)c1cc(Cl)cc(C)c1NC(=O)c1cc(Cn2nnc(C(F)(F)F)n2)nn1-c1ncccc1Cl [Example 337]	≥ 80	3.62	≥ 80	≥ 80	–	–	–	–	–
C=C(C)CNC(=O)c1cc(C#N)cc(C)c1NC(=O)c1cc(Cn2nnc(C(F)(F)F)n2)nn1-c1ncccc1Cl [Example 338]	≥ 80	3.21	≥ 80	≥ 80	–	–	–	–	–
O=C(NC1CC1)c1cc(Cl)cc(Cl)c1NC(=O)c1cc(Cn2nnc(C(F)(C(F)(F)F)C(F)(F)F)n2)nn1-c1ncccc1Cl [Example 339]	≥ 80	3.89	≥ 80	≥ 80	–	–	–	–	–
Cc1cc(C#N)cc(C(=O)NC(C)C)c1NC(=O)c1cc(Cn2nnc(C(F)(F)F)n2)nn1-c1ccccc1Cl [Example 341]	≥ 80	–	–	–	3.6	≥ 80	≥ 80	–	–
CCNC(=O)c1cc(C#N)cc(C)c1NC(=O)c1cc(Cn2nnc(C(F)(F)F)n2)nn1-c1ccccc1Cl [Example 342]	≥ 80	–	–	–	3.36	≥ 80	≥ 80	–	–
CNC(=O)c1cc(Cl)cc(C)c1NC(=O)c1cc(Cn2nnc(C(F)(F)F)n2)nn1-c1ccccc1Br [Example 345]	≥ 80	–	–	–	3.5	≥ 80	≥ 80	–	–
CCNC(=O)c1cc(Cl)cc(C)c1NC(=O)c1cc(Cn2nnc(C(F)(F)F)n2)nn1-c1ncccc1Br [Example 346]	≥ 80	–	–	–	3.23	≥ 80	≥ 80	–	–
CNC(=O)c1cc(C#N)cc(C)c1NC(=O)c1cc(Cn2nnc(C(F)(F)F)n2)nn1-c1ccccc1Br [Example 349]	≥ 80	–	–	–	3.15	≥ 80	≥ 80	–	–

SMILES	pest or weed control at 100 g/ha [1] [%]	chromatographic logP ([2]; log P)	pest or weed control at 100 g/ha ([3]; in Brassica rapa) [%]	pest or weed control at 100 g/ha ([4]; in Zea mays) [%]	chromatographic logP [2, 5]	pest or weed control at 100 g/ha [3, 6] [%]	pest or weed control at 100 g/ha [4, 7] [%]	pest or weed control at 20 g/ha ([3]; application rate 20 g/ha, Chinese cabbage leaf discs) [%]	chromatographic logP [2, 8]
Cc1cc(I)cc(C(N)=O)c1NC(=O)c1cc(Cn2nnc(C(F)(F)F)n2)nn1-c1ncccc1Br [Example 351]	≥ 80	–	–	–	2.95	≥ 80	≥ 80	–	–
Cc1cc(Br)cc(C(N)=O)c1NC(=O)c1cc(Cn2nnc(C(F)(F)F)n2)nn1-c1ncccc1Br [Example 353]	≥ 80	–	–	–	2.82	≥ 80	≥ 80	–	–
CNC(=O)c1cc(Br)cc(C)c1NC(=O)c1cc(Cn2nnc(C(F)(F)F)n2)nn1-c1ncccc1Br [Example 354]	≥ 80	–	–	–	3.12	≥ 80	≥ 80	–	–
Cc1cc(Cl)cc(C(N)=O)c1NC(=O)c1cc(Cn2nnc(C(F)(C(F)(F)F)C(F)(F)F)n2)nn1-c1ncccc1Cl [Example 360]	≥ 80	3.46	≥ 80	≥ 80	–	–	–	–	–
CSC[C@H](C)NC(=O)c1cc(Cl)cc(C)c1NC(=O)c1cc(Cn2nnc(C(F)(C(F)(F)F)C(F)(F)F)n2)nn1-c1ncccc1Cl [Example 361]	≥ 80	–	–	–	4.39	≥ 80	≥ 80	–	–
CNC(=O)c1cc(C#N)cc(C)c1NC(=O)c1cc(Cn2nnc(C(F)(C(F)(F)F)C(F)(F)F)n2)nn1-c1ncccc1Cl [Example 367]	≥ 80	3.35	≥ 80	≥ 80	–	–	–	–	–
Cc1cc(C#N)cc(C(N)=O)c1NC(=O)c1cc(Cn2nnc(C(F)(C(F)(F)F)C(F)(F)F)n2)nn1-c1ncccc1Cl [Example 372]	≥ 80	3.13	≥ 80	≥ 80	–	–	–	–	–
CSC[C@H](C)NC(=O)c1cc(C#N)cc(C)c1NC(=O)c1cc(Cn2nnc(C(F)(C(F)(F)F)C(F)(F)F)n2)nn1-c1ncccc1Cl [Example 376]	≥ 80	–	–	–	3.96	≥ 80	≥ 80	–	–
CNC(=O)c1cc(I)cc(C)c1NC(=O)c1cc(Cn2nnc(C(F)(C(F)(F)F)C(F)(F)F)n2)nn1-c1ncccc1Cl [Example 377]	≥ 80	3.94	≥ 80	≥ 80	–	–	–	–	–
CSC[C@H](C)NC(=O)c1cc(I)cc(C)c1NC(=O)c1cc(Cn2nnc(C(F)(C(F)(F)F)C(F)(F)F)n2)nn1-c1ncccc1Cl [Example 385]	≥ 80	–	–	–	4.63	≥ 80	≥ 80	–	–
NC(=O)c1cc(Cl)cc(Cl)c1NC(=O)c1cc(Cn2nnc(C(F)(C(F)(F)F)C(F)(F)F)n2)nn1-c1ncccc1Cl [Example 391]	≥ 80	3.41	≥ 80	≥ 80	–	–	–	–	–
Cc1cc(C#N)cc(C(=O)NOCC2CC2)c1NC(=O)c1cc(Cn2nnc(C(F)(F)F)n2)nn1-c1ncccc1Cl [Example 397]	≥ 80	2.96	≥ 80	≥ 80	–	–	–	–	–
Cc1cc(C#N)cc(C(=O)NOC(C)C)c1NC(=O)c1cc(Cn2nnc(C(F)(F)F)n2)nn1-c1ncccc1Cl [Example 398]	≥ 80	2.88	≥ 80	≥ 80	–	–	–	–	–
CNC(=O)c1cc(C#N)cc(C)c1NC(=O)c1cc(Cn2nnc(C(F)(F)F)n2)nn1-c1ncccc1F [Example 405]	≥ 80	–	–	–	–	≥ 80	≥ 80	–	2.46
Cc1cc(C#N)cc(C(=O)NC(C)C)c1NC(=O)c1cc(Cn2nnc(C(F)(F)F)n2)nn1-c1ncccc1F [Example 406]	≥ 80	–	–	–	–	≥ 80	≥ 80	–	2.88
Cc1cc(C#N)cc(C(=O)NC(C)(C)C)c1NC(=O)c1cc(Cn2nnc(C(F)(F)F)n2)nn1-c1ncccc1F [Example 407]	≥ 80	–	–	–	–	≥ 80	≥ 80	–	3.2
CNC(=O)c1cc(I)cc(C)c1NC(=O)c1cc(Cn2nnc(C(F)(F)F)n2)nn1-c1ncccc1Br [Example 410]	≥ 80	–	–	–	–	≥ 80	≥ 80	–	3.26
